Measured values reported in patent publication US9867790B2, “Compositions and methods using cuminaldehyde” (NESTEC S.A., priority 2013, dated 2018).
Where two headings read alike, the source gives them in different places.

Experiments:
TRPV1 [1] = biological target: T1, TRPV1 (Homo sapiens, UniProt Q8NER1); test: desensitization of TRPV1 by pretreatment before capsaicin (FIGS. 8A, 8B); type: cell-based; conditions: applied to cells fifteen minutes before capsaicin
T1 construct: expressed in transfected cells
T1 sequence (Q8NER1 whole entry, species assumed): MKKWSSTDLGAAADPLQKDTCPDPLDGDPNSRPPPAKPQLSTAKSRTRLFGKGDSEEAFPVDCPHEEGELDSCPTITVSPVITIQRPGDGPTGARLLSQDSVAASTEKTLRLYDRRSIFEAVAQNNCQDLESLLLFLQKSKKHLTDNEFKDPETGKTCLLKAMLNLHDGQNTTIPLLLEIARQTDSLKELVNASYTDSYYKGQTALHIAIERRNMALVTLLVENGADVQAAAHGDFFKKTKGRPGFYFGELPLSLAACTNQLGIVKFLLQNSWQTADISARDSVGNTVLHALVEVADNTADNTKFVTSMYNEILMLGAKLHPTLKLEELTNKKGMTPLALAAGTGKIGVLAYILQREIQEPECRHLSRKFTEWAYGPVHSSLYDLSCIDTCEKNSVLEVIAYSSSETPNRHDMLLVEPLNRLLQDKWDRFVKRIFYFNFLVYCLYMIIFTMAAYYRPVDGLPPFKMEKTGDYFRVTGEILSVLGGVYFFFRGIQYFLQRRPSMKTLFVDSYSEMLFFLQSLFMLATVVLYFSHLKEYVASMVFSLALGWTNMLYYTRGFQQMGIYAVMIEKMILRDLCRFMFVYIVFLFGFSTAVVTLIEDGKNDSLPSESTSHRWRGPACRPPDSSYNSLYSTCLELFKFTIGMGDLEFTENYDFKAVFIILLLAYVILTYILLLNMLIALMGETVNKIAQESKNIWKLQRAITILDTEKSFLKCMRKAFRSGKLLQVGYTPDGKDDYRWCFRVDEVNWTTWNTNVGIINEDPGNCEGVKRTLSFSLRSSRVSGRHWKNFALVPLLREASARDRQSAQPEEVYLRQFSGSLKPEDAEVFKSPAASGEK
Description: (§1) Specifically, cuminaldehyde was applied to cells fifteen minutes before cinnamaldehyde, icilin and capsaicin, which are specific agonists for TRPA1, TRPM8 and TRPV1 cation channels, respectively. After specific agonist application, the cation channel expression was measured. […] The left bars in each graph represent the controls lacking cuminaldehyde pretreatment, the right bars in each graph represent the samples including cuminaldehyde pretreatment.

TRPA1 [2] = biological target: T2, TRPA1 (Homo sapiens, UniProt O75762); test: in vitro activation of TRPA1 in cells (FIG. 7); type: cell-based
T2 construct: expressed in transfected cells
T2 sequence (O75762 whole entry, species assumed): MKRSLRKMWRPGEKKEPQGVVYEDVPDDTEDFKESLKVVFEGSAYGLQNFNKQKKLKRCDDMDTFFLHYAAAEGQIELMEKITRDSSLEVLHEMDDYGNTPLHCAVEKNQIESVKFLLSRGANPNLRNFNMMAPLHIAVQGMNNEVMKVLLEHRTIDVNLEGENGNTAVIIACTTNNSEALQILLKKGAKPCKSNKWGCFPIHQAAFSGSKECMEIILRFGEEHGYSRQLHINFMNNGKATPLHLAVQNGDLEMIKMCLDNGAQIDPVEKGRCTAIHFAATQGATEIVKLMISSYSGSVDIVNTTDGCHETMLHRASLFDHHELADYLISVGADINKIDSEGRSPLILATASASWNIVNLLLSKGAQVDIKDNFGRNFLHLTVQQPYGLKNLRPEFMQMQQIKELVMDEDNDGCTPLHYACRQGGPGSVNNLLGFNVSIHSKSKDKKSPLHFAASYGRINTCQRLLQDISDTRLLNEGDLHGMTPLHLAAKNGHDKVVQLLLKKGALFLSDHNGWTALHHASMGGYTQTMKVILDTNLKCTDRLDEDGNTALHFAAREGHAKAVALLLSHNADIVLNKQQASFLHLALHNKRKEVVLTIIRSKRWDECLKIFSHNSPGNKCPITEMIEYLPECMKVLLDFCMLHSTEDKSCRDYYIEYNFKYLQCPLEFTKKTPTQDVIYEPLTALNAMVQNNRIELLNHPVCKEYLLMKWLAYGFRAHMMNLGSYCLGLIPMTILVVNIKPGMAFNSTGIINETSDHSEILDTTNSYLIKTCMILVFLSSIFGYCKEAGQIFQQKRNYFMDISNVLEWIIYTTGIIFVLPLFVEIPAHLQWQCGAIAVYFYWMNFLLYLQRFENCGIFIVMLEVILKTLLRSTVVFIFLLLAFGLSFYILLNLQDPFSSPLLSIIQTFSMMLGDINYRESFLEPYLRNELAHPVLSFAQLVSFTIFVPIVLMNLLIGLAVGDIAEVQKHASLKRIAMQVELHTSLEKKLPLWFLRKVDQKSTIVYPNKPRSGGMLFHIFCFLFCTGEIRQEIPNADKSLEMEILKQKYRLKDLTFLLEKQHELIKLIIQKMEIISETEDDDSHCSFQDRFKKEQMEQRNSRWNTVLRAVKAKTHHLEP

TRPM8 [3] = biological target: T3, TRPM8 (Homo sapiens, UniProt Q7Z2W7); test: desensitization of TRPM8 by pretreatment before icilin (FIGS. 8A, 8B); type: cell-based; set-up: host or cells: cells, not specified; conditions: applied to cells fifteen minutes before icilin
T3 sequence (Q7Z2W7 whole entry): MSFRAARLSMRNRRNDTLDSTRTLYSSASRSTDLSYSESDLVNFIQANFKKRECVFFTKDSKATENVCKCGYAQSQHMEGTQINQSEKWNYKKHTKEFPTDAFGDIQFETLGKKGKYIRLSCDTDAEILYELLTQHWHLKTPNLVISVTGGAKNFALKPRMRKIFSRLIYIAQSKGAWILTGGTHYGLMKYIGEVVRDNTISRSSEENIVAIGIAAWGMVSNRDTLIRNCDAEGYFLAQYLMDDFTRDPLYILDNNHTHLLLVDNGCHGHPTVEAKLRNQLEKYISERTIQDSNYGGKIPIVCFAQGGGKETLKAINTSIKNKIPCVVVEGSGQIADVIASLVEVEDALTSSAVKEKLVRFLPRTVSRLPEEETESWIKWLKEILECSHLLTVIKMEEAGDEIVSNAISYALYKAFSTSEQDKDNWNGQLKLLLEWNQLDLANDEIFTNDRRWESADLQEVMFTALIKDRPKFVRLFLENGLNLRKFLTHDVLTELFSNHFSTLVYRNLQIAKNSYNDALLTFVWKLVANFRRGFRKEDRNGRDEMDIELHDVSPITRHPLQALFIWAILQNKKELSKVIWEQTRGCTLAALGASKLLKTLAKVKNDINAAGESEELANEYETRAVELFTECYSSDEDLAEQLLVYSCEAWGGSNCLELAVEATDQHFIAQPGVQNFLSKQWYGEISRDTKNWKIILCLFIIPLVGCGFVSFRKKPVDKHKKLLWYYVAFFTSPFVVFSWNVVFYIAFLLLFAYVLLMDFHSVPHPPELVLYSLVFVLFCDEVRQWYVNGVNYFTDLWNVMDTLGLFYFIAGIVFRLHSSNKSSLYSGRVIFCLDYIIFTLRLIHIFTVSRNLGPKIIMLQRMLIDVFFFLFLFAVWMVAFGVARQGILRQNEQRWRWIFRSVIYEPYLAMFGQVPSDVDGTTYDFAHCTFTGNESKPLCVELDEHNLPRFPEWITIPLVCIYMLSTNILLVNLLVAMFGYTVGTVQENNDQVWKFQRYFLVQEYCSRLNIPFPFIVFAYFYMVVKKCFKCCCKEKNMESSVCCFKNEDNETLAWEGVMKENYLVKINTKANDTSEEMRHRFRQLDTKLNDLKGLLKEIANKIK
Description: as §1

TRPM8 [4] = biological target: T3, TRPM8; test: in vitro activation of hTRPM8 in cells (FIG. 7); type: cell-based; set-up: expressed in transfected cells; conditions: FIG. 7, squares
TRPA1 [5] = biological target: T2, TRPA1; test: desensitization of TRPA1 by pretreatment before cinnamaldehyde (FIGS. 8A, 8B); type: cell-based; conditions: applied to cells fifteen minutes before cinnamaldehyde
Description: as §1

"empty" cells = test: in vitro activation of "empty" cells (FIG. 7); type: cell-based
TRPV1 [6] = biological target: T1, TRPV1; test: in vitro activation of TRPV1 in cells (FIG. 7); type: cell-based; conditions: FIG. 7, triangles
mice [7] = test: insulin sensitivity in mice with chronic ingestion (FIG. 4); type: in vivo; conditions: mice chronically fed high fat diet containing 0.2 wt %, vs same diet without
mice [8] = test: short term food intake after a single ingestion in mice (FIG. 5); type: in vivo; conditions: vs sham gavage
mice [9] = test: body weight gain in mice with chronic ingestion (FIG. 3); type: in vivo; conditions: mice chronically fed high fat diet containing 0.2 wt %, vs same diet without
TRPA1 [10] = conditions: read-out: EC50 of TRPA1 activation; cited from earlier work
mice [11] = test: gastric emptying after a single ingestion in mice (FIG. 6); type: in vivo; conditions: vs sham gavage
TRPV1 [12] = biological target: T1, TRPV1; conditions: cited from earlier work

Structure (SMILES) | desensitization of TRPV1 (TRPV1 [1]) | activation of TRPA1 (TRPA1 [2]; FIG. 7, diamonds) | efficacy of TRPA1 activation relative to cinnamaldehyde (TRPA1 [2]; relative to known TRPA1 agonist cinnamaldehyde) [%] | desensitization of TRPM8 (TRPM8 [3]) | activation of hTRPM8 (TRPM8 [4]) | desensitization of TRPA1 (TRPA1 [5]) | activation of "empty" cells ("empty" cells) | activation of TRPV1 (TRPV1 [6]) | insulin sensitivity (mice [7]) | short term food intake (mice [8]) | body weight gain (mice [9]) | EC50 (TRPA1 [10]) [µM] | gastric emptying (mice [11]) | activation of TRPV1 (TRPV1 [12])
CC(C)c1ccc(C=O)cc1 [cuminaldehyde] | does not desensitize | activated TRPA1 (diamonds) in a dose-dependent fashion | 140 | does not desensitize | no activation was observed | does not desensitize | no activation was observed | no activation was observed | – | – | – | – | – | –
O=CC=Cc1ccccc1 [cinnamaldehyde] | – | – | – | – | – | – | – | – | improved insulin sensitivity | reduction in short term food intake | gained less weight | ~60 | delayed gastric emptying | not
